Measurements from patent US11866416B2, “Streptococcus mutans glucosyl transferase inhibitors for dental caries therapy” (UAB Research Foundation, priority 2018, dated 2024).

Columns and labels:
GtfB catalytic domain = GtfB catalytic domain (Streptococcus mutans serotype c (strain ATCC 700610 / UA159), UniProt P08987); assay: OctetRed96 binding kinetics, GtfB; settings: 1:1 binding model
Text: To determine if the inhibition is attributed by the binding of the lead compound to the enzymes, the OctetRed96 system was used to characterize protein-small molecule binding kinetics. The his-tagged catalytic domains of GtfB and GtC were immobilized separately onto an anti-penta-HIS (HIS1K) biosensor which consists of high affinity, high specificity penta-his antibody pre-immobilized on a fiber optic biosensor. This sensor was then exposed to varying concentrations of #G43.
Expression and purification of GtfB and GtfC catalytic domains. The DNA fragment coding for either GtfB catalytic (residues 268 aa-1074 aa) or GtfC-catalytic (residues 295 aa-1103 aa) was PCR amplified with primer sets of GtfB-BamH1-F and GtfB-Xho1-R, GtfC-BamH1-F and GtfC-Xhol1-R respectively using S. mutans genomic DNA as a template. Each amplified fragment was cloned into pET-sumo vector respectively and transformed in Escherichia coli BL21(DE3). The recombinant strain grown to OD600=0.8 in LB medium was induced with 0.1 mM IPTG at 18° C. overnight. Cell lysates prepared form the overnight grown E. coli cells were subjected to protein purification using HiTrap™ Column (Ni^2+ affinity) followed by gel filtration experiments as described (Zhu, F. et al. Structural and functional analysis of a new subfamily of glycosyltransferases required for glycosylation of serine-rich streptococcal adhesins. The Journal of biological chemistry 286, 27048-27057, doi:10.1074/jbc.M110.208629 (2011); Zhang, H. et al. The highly conserved domain of unknown function 1792 has a distinct glycosyltransferase fold. Nature communications 5, 4339, doi:10.1038/ncomms5339 (2014)).
Octet Red analysis. Octet full kinetic binding analysis was performed for binding of #G43 to GtfB and GtfC. The rate constant, KD, was determined using the Octet® Red96 system (ForteBio, Menlo Park, Calif.). Phosphate buffer with 3.5% (w/v) DMSO was used. The proteins were captured on dip-and-read Anti-Penta-HIS (HIS1K) Biosensor. These consist of high affinity, high specificity Penta-His antibody from Qiagen pre-immobilized on a fiber optic biosensor. The binding of #G43 at 3-fold serial dilutions in phosphate buffer from 200, 66.6, 22.2, 7.4, 2.5 to 0 μM was assessed. The ForteBio Octet analysis software (ForteBio, Menlo Park, Calif.) was used to generate the sensorgram and the accuracy of the analysis.
OctetRed analysis. […] GtfC and GtfB were purified. The Octet® Red96 system (ForteBio, Menlo Park, Calif.) was used to determine the rate constant, KD. […] Sensorgrams and the accuracy of the analysis was calculated using the ForteBio OctetRed analysis software (ForteBio, Menlo Park, Calif.).

S. mutans UA159 = assay: Rat model of dental caries; settings: for bacterial colonization versus control group / body weight over the course of the study / buccal, sulcal, and proximal surface caries scores: 100 μM topically twice daily for 4 weeks; for oral tissue (mucosal and gingival tissues) at sacrifice, treated versus non-treated: 100 μM twice daily for 4 weeks
Protocol: Rat model of dental caries. S. mutans in vivo colonization and virulence were evaluated using a rat model of dental caries as previously described (Crowley, P. J., Brady, L. J., Michalek, S. M. & Bleiweis, A. S. Virulence of a spaP Mutant of Streptococcus mutans in a Gnotobiotic Rat Model. Infection and Immunity 67, 1201-1206 (1999)). […] Rats were then infected with S. mutans UA159 for three consecutive days and provided a caries-promoting Teklad Diet 305 containing 5% sucrose (Harlan Laboratories, Inc., Indianapolis, IN.) and sterile drinking water ad libitum. One group of rats was then treated with vehicle control while another group was topically treated with the lead compound at 100 μM twice daily for 4 weeks beginning 10 days post infection. Following each treatment, drinking water was withheld for 60 min. Animals were weighed at weaning and at the termination of the experiment. The animals were euthanized, their mandibles excised for microbiological analysis of plaque samples on MS agar plates and BAP and for scoring of caries by the method of Keyes (Keyes, P. H. Dental caries in the molar teeth of rats. II. A method for diagnosing and scoring several types of lesions simultaneously. Journal of dental research 37, 1088-1099 (1958)). All experimental protocols were approved by University of Alabama at Birmingham Institutional Animal Care and Use Committee. The methods were carried out in accordance with the relevant guidelines and regulations.
Dental caries rat model. […] At the age of 20 days, rat pups were removed from isolators and randomly assigned into five groups. […] Rats were then infected with S. mutans UA159 for three consecutive days and provided a caries-promoting Diet 305, which contains 5% sucrose (TD.80406, diet with 62% corn starch, Harlan Laboratories, Madison, Wis.) and sterile drinking water ad libitum. The rats were then treated with the stilbene, water, or not treated respective of their study group as described above at 100 μM twice daily for 4 weeks beginning 10 days post infection. Drinking water was withheld for one hour after each treatment. Rats were weighed at weaning and after 45 days at the termination of the experiment. The animals were euthanized, their mandibles excised for microbiological analysis of plaque samples on MS agar plates and BAP and for scoring of caries by the method of Keyes. All experimental protocols were approved by the University of Alabama at Birmingham Institutional Animal Care and Use Committee and in accordance with the relevant guidelines and regulations.

Sequence of GtfB catalytic domain (P08987 268-1074 limits assumed): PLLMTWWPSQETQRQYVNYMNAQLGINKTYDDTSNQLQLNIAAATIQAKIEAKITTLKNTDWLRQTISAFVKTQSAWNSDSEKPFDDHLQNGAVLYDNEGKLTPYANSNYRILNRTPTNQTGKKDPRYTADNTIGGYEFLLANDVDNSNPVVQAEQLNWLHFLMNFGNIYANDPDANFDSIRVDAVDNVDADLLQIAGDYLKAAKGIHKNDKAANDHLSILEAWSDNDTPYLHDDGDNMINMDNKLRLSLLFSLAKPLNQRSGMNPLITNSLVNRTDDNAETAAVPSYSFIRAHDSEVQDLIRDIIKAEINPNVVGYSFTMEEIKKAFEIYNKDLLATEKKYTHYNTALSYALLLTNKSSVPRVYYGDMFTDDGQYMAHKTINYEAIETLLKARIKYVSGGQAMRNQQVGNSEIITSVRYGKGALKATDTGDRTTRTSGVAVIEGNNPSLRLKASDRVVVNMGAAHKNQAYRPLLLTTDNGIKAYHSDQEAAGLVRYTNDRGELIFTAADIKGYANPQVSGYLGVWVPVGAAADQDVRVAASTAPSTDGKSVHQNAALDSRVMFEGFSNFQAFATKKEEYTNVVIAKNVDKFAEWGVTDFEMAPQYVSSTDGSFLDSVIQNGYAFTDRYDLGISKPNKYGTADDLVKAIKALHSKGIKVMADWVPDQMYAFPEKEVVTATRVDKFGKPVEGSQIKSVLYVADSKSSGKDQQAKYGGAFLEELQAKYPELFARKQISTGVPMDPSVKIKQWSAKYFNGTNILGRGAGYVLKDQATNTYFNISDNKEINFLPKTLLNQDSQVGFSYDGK

| SMILES | Kd (GtfB catalytic domain) [µM] | bacterial colonization versus control group (S. mutans UA159) | body weight over the course of the study (S. mutans UA159) | buccal, sulcal, and proximal surface caries scores (S. mutans UA159) | oral tissue (mucosal and gingival tissues) at sacrifice, treated versus non-treated (S. mutans UA159) |
| --- | --- | --- | --- | --- | --- |
| NC(=O)c1ccccc1NC(=O)c1cc2cc([N+](=O)[O-])ccc2s1 [#G43] | 3.7 | did not reach the statistically significant difference | did not lose weight | significantly reduced |  |
| Oc1ccc(/C=C/c2cc(O)cc(O)c2)cc1 [Resveratrol, reference compound] | 144 | not statistically significant | did not lose weight | significant reduction | no obvious differences |
| Oc1cc(O)cc(/C=C/c2ccc(O)c(O)c2)c1 [Piceatannol] | 14.6 | not statistically significant | did not lose weight | significant reduction | no obvious differences |
